Results as given in patent publication US8097431B2 (priority 2004, dated 2012).

Legend:
LexA-DBD:PR-LBD:VP16 = target: T1, LexA-DBD:PR-LBD:VP16 (Homo sapiens, UniProt P06401); test: yeast progesterone tripartite bioassay; type: cell-based; settings: progesterone receptor tripartite
T1 construct: expressed in transfected cells; host or cells: Saccharomyces cerevisiae W303 diploid yARUP16 transformed with pARUP32 (yARUP49)
T1 sequence (P06401 with tags, fused parts or gaps): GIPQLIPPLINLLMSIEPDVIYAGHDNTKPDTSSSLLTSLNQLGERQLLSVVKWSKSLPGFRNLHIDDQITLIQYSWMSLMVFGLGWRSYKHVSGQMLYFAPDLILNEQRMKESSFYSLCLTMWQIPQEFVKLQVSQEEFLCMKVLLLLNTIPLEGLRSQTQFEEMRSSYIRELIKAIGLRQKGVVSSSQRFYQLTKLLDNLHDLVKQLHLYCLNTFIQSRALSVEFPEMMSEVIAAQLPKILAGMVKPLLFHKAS
Experimental: Yeast were inoculated from a plate into synthetic media lacking leucine, uracil and histidine supplemented with 2% dextrose. After 18 hr incubation at 30° C., cells were washed with synthetic media lacking leucine, uracil and histidine supplemented with glycerol and resuspended in glycerol media to an absorbance at 600 nm of 0.03. Cells were grown for 4 hr then 50 μL of cells were added to each well of a 96-well plate. 50 μl of steroid in phosphate buffered saline 0.5% BSA. Cells were grown at 30° C. in a shaking water bath for 18 hr. To detect β-galactosidase activity, 25 μl of cells and 25 μl of Beta-Glo (Promega, Madison Wis.) were transferred to a luminescent 96-well plate (Fisher, Pittsburgh, Pa.). After 30 min incubation at room temperature, the reaction mixture was read using Lumimark (Bio-Rad, Hercules, Calif.).

[1] = target: T2, progesterone tripartite system (Homo sapiens, UniProt P06401); test: progesterone bioactivity in serum of women on birth control (progesterone tripartite system); type: in vivo; settings: women on fourth generation progestin
T2 construct: expressed in transfected cells; host or cells: Saccharomyces cerevisiae W303 diploid yARUP16 transformed with pARUP32 (yARUP49)
T2 sequence (P06401 with tags, fused parts or gaps): T1 sequence (P06401 with tags, fused parts or gaps)
Experimental: Serum samples were pre-treated by diluting with an equal volume of 0.9 mg/mL K2EDTA, (150 μl of serum was added to 150 μl of 0.9 mg/mL K2 EDTA), vortexed briefly and heated for 5 min at 72 C. Pre-treated serum was added to yeast expressing the androgen or progesterone tripartite, prepared as follows.
Yeast were inoculated from a frozen stock into synthetic media lacking leucine, uracil, and histidine supplemented with 2% dextrose. […] Twenty-five microliters of mid-log yeast were added to each well of a 384-well plate using a, BioMek 2000 (Beckman-Coulter). Serum samples were diluted with an equal volume of 0.9 mg/mL K2EDTA, (150 μL of serum was added to 150 μL of 0.9 mg/mL K2 EDTA), vortexed briefly and heated for 5 min at 72° C. Ten microliters of pre-treated sample was added to the plate. Ten microliters of serially diluted compound in H2O was incubated with 25 μL of yeast (Thermolabsystems). The plate was covered with Aeroseal sealing film (Research Products International, Palatine Ill.), and placed on a plate shaker for 5 min and the plate was incubated for 17-18 hr at 28° C. in a humidified incubator. After overnight incubation, the plate was shaken for 5 min. […] After about 2-hr incubation at room temperature, the β-galactosidase in the reaction mixture was determined using Luminskan luminometer (Thermolabsystems). […]

levels detectable by this method (LexA-DBD:PR-LBD:VP16) | SMILES | serum progesterone levels of women on birth control [1]
1000-100,000 pg/ml | CC(=O)[C@H]1CC[C@H]2[C@@H]3CCC4=CC(=O)CC[C@]4(C)[C@H]3CC[C@]12C [Progesterone, progesterone] | –
– | C[C@]12CCC(=O)C=C1[C@@H]1C[C@@H]1[C@H]1[C@@H]3[C@@H]4C[C@@H]4[C@@]4(CCC(=O)O4)[C@@]3(C)CC[C@@H]12 [drospireone] | lower
